Data: US20240390377A1, “COMPOSITION FOR THE PREVENTION OR TREATMENT OF NEURODEGENERATIVE OR MOTOR NEURON DISEASES COMPRISING HALOFUGINONE AS AN ACTIVE INGREDIENT” (CURAMYS CO., LTD., priority 2022, published 2024)

What was measured:
[1] = system: C2C12 cells; assay: Western blot analysis of C2C12 myoblasts (TGF-β1 stimulation, halofuginone treatment); format: cell-based, mouse; conditions: 24 hours of 5 ng/ml TGF-β1 stimulation (FIG. 2b)
Experimental: (§1) Specifically, C2C12 cells (CRL-1772) were purchased from the American Type Culture Collection (ATCC) and maintained in DMEM medium (Welgene) containing 10% (v/v) fetal bovine serum (FBS; Gibco) and 1% penicillin-streptomycin (P/S; Gibco) at 37° C. under 5% CO2 conditions. The C2C12 cells were seeded in 6-well plates at a density of 3×10^5 cells per well and allowed to adhere for 24 hours. Subsequently, the medium was replaced with serum-free medium after 24 hours, followed by stimulation with 5 ng/ml rhTGF-β1 (recombinant human TGF-β1; R&D Systems). After stimulation, the cells were treated with various concentrations (0 [control], or 1, 2.5, 5 [low dose], 10 [high dose], 20, 50, 100 ng/ml) of halofuginone (Sigma) in serum-free medium for 24 hours.
Specifically, the lumbar spinal cord or knee joint of the mouse of Example 6 was separated and immediately frozen at −80° C. Each lumbar spinal cord or knee joint was then homogenized and chemically treated to obtain cells. The chemically treated cells, the C2C12 cells of Example 1 or the fibroblasts of Example 5 were dissolved in a RIPA buffer (Thermo, MA, USA) with a protease inhibitor and a phosphatase inhibitor (Roche, IN, USA) and incubated on ice for 30 minutes. After centrifugation of the lysate at 13,000 rpm at 4° C. for 20 min, insoluble substances were removed. Protein concentrations were measured by BCA analysis (Pierce Biotechnology). Equal volumes of cell lysate were loaded onto SDS-PAGE gels for electrophoresis, and transferred onto nitrocellulose membranes (Amersham Protran 0.2 um NC, Amersham Pharmacia Biotech, Piscataway, NJ, USA). The membranes were then blocked with 5% (w/v) skimmilk in 1×TBST for 1 h at room temperature. After blocking, anti-RB-actin antibody (1:5000; Santa Cruz, cat #sc47778), anti-Smad2 antibody (1:1000; Cell Signaling, cat #5339), anti-p-Smad2 antibody (1:1000; Cell Signaling, cat #3108), anti-TGF-β1 antibody (1:1000; Santa Cruz, cat #sc130348), anti-α-SMA antibody (1:10000; abcam cat #ab7817), anti-MyoD antibody (1:1000; cat #sc377460), anti-collagen|antibody (1:1000; abcam cat #ab21286), anti-cleaved caspase-3 antibody (1:1000; Cell Signaling, cat #9661), anti-bax antibody (1:500; Santa Cruz, cat #sc493), anti-bcl2 antibody (1:1000; Novus Biologics, cat #NB100-56098), anti-ChAT antibody (1:1000; Millipore, cat #AB144) were treated and incubated overnight at 4° C. Subsequently, membranes were washed several times with 1×TBST and incubated with horseradish peroxidase-conjugated secondary antibodies (anti-mouse, rabbit or goat, 1:5000; GE Healthcare) in blocking buffer for 1 h at room temperature (RT). The membranes were then washed, briefly incubated with the SuperSignal West Pico Plus Chemical Substructure (Pierce Biotechnology) according to the manufacturer's procedure, and quantified with an image analyzer (Amersham Pharmacia Biotech, Piscataway, NJ, USA). β-actin was used as an internal control group. The concentration measurement of protein intensity was quantified using Image J (National Institutes of Health).
(§2) Specifically, after treating C2C12 cells with TGF-β1 for 24 hours as in Example 1, real-time qRT-PCR was performed in the same manner as in Example 11 to confirm TGF-β1, 2 and 3, α-SMA and MyoD mRNA expression (FIG. 2a), and Western blot analysis was performed in the same manner as in Example 12 to confirm autocrine expression of TGF-β1 and MyoD protein and α-SMA (FIG. 2b).
Specifically, C2C12 cells were treated with halofuginone after TGF-β1 stimulation or no stimulation in the same manner as described in Example 2, and cell viability analysis was performed through CCK-8 analysis (FIGS. 3a and 3b), and Western blot analysis was performed in the same manner as described in Example 12 to confirm autocrine expression of p-Smad2, Smad2, TGF-β1, MyoD, collagen I protein and α-SMA (FIG. 3c). […]

[2] = system: C2C12 cells; assay: Real-time qRT-PCR analysis of C2C12 myoblasts (TGF-β1 stimulation, halofuginone treatment); format: cell-based, mouse; conditions: 24 hours of 5 ng/ml TGF-β1 stimulation, vs control group (FIG. 2a)
Experimental: as §1
Specifically, total RNA was isolated from C2C12 cells in Example 1, fibroblasts in Example 5, and the lumbar spinal cord of mice in Example 6 using the FavorPrep™ Tri-RNA Reagent (Favorgen). The lumbar spinal cord was isolated from the mouse in Example 6 and stored frozen at −80° C. until the experiment. The concentration of total RNA was measured at 260 nm absorbance using a spectrophotometer (NanoDrop Spectrophotometer ND-2000, Thermo Scientific). cDNA was synthesized from 1 μg of total RNA using the ReverTra Ace-α™ (Toyobo) according to the manufacturers protocol. Quantitative RT-PCR was performed using the SYBR Green ExcelTaq™ 2× Fast Q-PCR Master Mix (TQ1200, Smobio) on a thermocycler (CFX Connect Real-Time PCR Detection System, BIO-RAD) with the primers listed in Table 3 below. Fluorescence data were analyzed with Bio-Rad CFX Manager 3.1 software, and control versus relative mRNA expression was calculated by the 2AT) method. Experiments were performed four times on all samples. All primers were designed using Primer3 online software, and GAPDH was used as a control group.
as §2
Specifically, as in Example 1, C2C12 cells were stimulated with TGF-β1 for 24 hours, and then halofuginone was treated for 24 hours, and real-time qRT-PCR was performed in the same manner as in Example 11 to confirm TGF-β1, α-SMA, MyoD, and collagen I (Col-I) mRNA expression (FIG. 4a). In addition, Western blot analysis was performed in the same manner as in Example 12 to confirm TGF-β1, α-SMA, MyoD, and collagen I protein expression (FIG. 4b). In addition, immunocytochemical analysis was performed in the same manner as in Example 3 to confirm α-SMA and MyoD expression (FIG. 4c).

TGF-β1: recombinant human TGF-β1 (R&D Systems) used to stimulate C2C12 myoblasts
TGF-β1 protein expression [1]: significantly increased | protein expression of MyoD [1]: significantly decreased | α-SMA protein expression [1]: significantly increased | mRNA expression of α-SMA [2]: significantly increased | mRNA level of MyoD [2]: significantly decreased | mRNA level of TGF-β1 [2]: significantly increased | mRNA level of TGF-β2 [2]: significantly increased | mRNA level of TGF-β3 [2]: significantly increased
